Experimental data reported in patent publication US20030229113A1, “Keratinocyte growth inhibitors and hydroxamic acid derivatives” (priority 2003, published 2003).

Tested on: solubilizing enzyme of HB-EGF
Test: Inhibition of TPA-stimulated release of HB-EGF from HT-1080 transfectant expressing HB-EGF/alkaline phosphatase fusion protein
Format: cell-based, human
Settings: HT-1080 HB-EGF-AP transfectant, TPA 60 nM for 60 min, AP activity in conditioned medium (OD405)
Description: Human fibrosarcoma HT-1080 stable transfectant expressing fusion protein of HB-EGF and human placental alkaline phosphatase (AP) were used for following experiments.
The cultured transfectant was treated with Trypsin-EDTA solution, and suspended in Minimum Essential Medium (without phenol red; supplemented with 10% heat-inactivated fetal calf serum; MEM) at the concentration of 1×10^5 cells/ml. Each 0.2 ml of the cell suspension was dispensed into individual wells of 96 well microplate, and incubated overnight in the CO2 incubator (37° C.). After the incubation, the conditioned medium was removed, and the wells were washed once with 0.2 ml of phosphate buffered saline. The cells were treated with 0.1 ml of compound solution [compound solutions in dimethylsulfoxide (DMSO) were diluted 100 times with MEM] for 30 min at 37° C. Then the compound solutions were removed, and cells were treated with 0.2 ml of TPA solution (120 μM) of stock solution was diluted to 60 nM with MEM) containing same concentration of the compound for 60 min at 37° C. The cells treated same procedure without compound were used as control.
After these treatments, each 0.1 ml of conditioned medium was transferred to individual wells of new 96 well microplate and incubated at 65° C. for 10 min to inactivate endogenous alkaline phosphatase. One hundred microliter of substrate solution (1 mg/ml of p-nitrophenyl phosphate in 0.01% magnesium chloride/1 M diethanolamine) for AP was added to each well and incubated for 120 min at room temperature in the dark. The OD405 of each well was measured with microplate reader. The IC50 values of the compounds were calculated from the concentration-inhibition curves.

| SMILES | IC50 [nM] |
| --- | --- |
| O=C(NO)C1Cc2nccnc2CN1S(=O)(=O)c1ccc(Oc2ccncc2)cc1 (racemic) [the compound(2), (±)-N-Hydroxy-6-[4-(pyridine-4-yloxy)benzenesulfonyl]-5,6,7,8-tetrahydropyrido[3,4-b]pyrazine-7-carboxamide] | 990 |
| O=C(NO)C1Cc2nccnc2CN1S(=O)(=O)c1ccc(Oc2cnccn2)cc1 (racemic) [the compound(5), (±)-N-Hydroxy-6-[4-(pyrazine-2-yloxy)benzenesulfonyl]-5,6,7,8-tetrahydropyrido[3,4-b]pyrazine-7-carboxamide] | 900 |
| CSCCCOc1ccc(S(=O)(=O)N2Cc3nccnc3CC2C(=O)NO)cc1 (racemic) [the compound(10), (±)-N-Hydroxy-6-[4-(3-methylthiopropoxy)benzenesulfonyl]-5,6,7,8-tetrahydropyrido[3,4-b]pyrazine-7-carboxamide] | 340 |

Same assay, conditions: HT-1080 HB-EGF-AP transfectant, TPA 60 nM for 60 min, AP activity in conditioned medium (OD405); read-out: IC50

| SMILES | IC50 [nM] |
| --- | --- |
| COc1ccc(S(=O)(=O)N2Cc3nccnc3CC2C(=O)NO)cc1 (racemic) [the compound(1), (±)-N-Hydroxy-6-(4-methoxybenzenesulfonyl)-5,6,7,8-tetrahydropyrido[3,4-b]pyrazine-7-carboxamide] | 800 |
| O=C(NO)C1Cc2nccnc2CN1S(=O)(=O)c1ccc(Oc2ccccc2)cc1 (racemic) [the compound(3), (±)-N-Hydroxy-6-(4-phenoxybenzenesulfonyl)-5,6,7,8-tetrahydropyrido[3,4-b]pyrazine-7-carboxamide] | 1000 |
| COCCCOc1ccc(S(=O)(=O)N2Cc3nccnc3CC2C(=O)NO)cc1 (racemic) [the compound(4), (±)-N-Hydroxy-6-[4-(3-methoxypropoxy)benzenesulfonyl]-5,6,7,8-tetrahydropyrido[3,4-b]pyrazine-7-carboxamide] | 240 |
| Nc1ccc(Oc2ccc(S(=O)(=O)N3Cc4nccnc4CC3C(=O)NO)cc2)cc1 (racemic) [the compound(6), (±)-N-Hydroxy-6-[4-(4-aminophenoxy)benzenesulfonyl]-5,6,7,8-tetrahydropyrido[3,4-b]pyrazine-7-carboxamide] | 1100 |
| CCOCCOc1ccc(S(=O)(=O)N2Cc3nccnc3CC2C(=O)NO)cc1 (racemic) [the compound(7), (±)-N-Hydroxy-6-[4-(2-ethoxyethoxy)benzenesulfonyl]-5,6,7,8-tetrahydropyrido[3,4-b]pyrazine-7-carboxamide] | 260 |
| COCCOc1ccc(S(=O)(=O)N2Cc3nccnc3CC2C(=O)NO)cc1 (racemic) [the compound(8), (±)-N-Hydroxy-6-[4-(2-methoxyethoxy)benzenesulfonyl]-5,6,7,8-tetrahydropyrido[3,4-b]pyrazine-7-carboxamide] | 840 |
| CCCCCOc1ccc(S(=O)(=O)N2Cc3nccnc3CC2C(=O)NO)cc1 (racemic) [the compound(9), (±)-N-Hydroxy-6-(4-pentyloxybenzenesulfonyl)-5,6,7,8-tetrahydropyrido[3,4-b]pyrazine-7-carboxamide] | 460 |
| COCCCCOc1ccc(S(=O)(=O)N2Cc3nccnc3CC2C(=O)NO)cc1 (racemic) [the compound(11), (±)-N-Hydroxy-6-[4-(methoxybutoxy)benzenesulfonyl]-5,6,7,8-tetrahydropyrido[3,4-b]pyrazine-7-carboxamide] | 1400 |
| CCOCCCOc1ccc(S(=O)(=O)N2Cc3nccnc3CC2C(=O)NO)cc1 (racemic) [the compound(12), (±)-N-Hydroxy-6-[4-(ethoxypropoxy)benzenesulfonyl]-5,6,7,8-tetrahydropyrido[3,4-b]pyrazine-7-carboxamide] | 160 |
| O=C(NO)C1Cc2nccnc2CN1S(=O)(=O)c1ccc(OCCF)cc1 (single isomer, unassigned; (+)) [the compound(18), (+)-N-Hydroxy-6-[4-(2-fluoroethoxy)benzenesulfonyl]-5,6,7,8-tetrahydropyrido[3,4-b]pyrazine-7-carboxamide] | 160 |
| CC(C)COc1ccc(S(=O)(=O)N2Cc3nccnc3CC2C(=O)NO)cc1 (single isomer, unassigned; (+)) [the compound(22), (+)-N-Hydroxy-6-(4-isobuthoxybenzenesulfonyl)-5,6,7,8-tetrahydropyrido[3,4-b]pyrazine-7-carboxamide] | 3600 |
| CCOCCCOc1ccc(S(=O)(=O)N2Cc3nccnc3CC2C(=O)NO)cc1 (single isomer, unassigned; (+)) [the compound(23), (+)-N-Hydroxy-6-[4-(3-ethoxypropoxy)benzenesulfonyl]-5,6,7,8-tetrahydropyrido[3,4-b]pyrazine-7-carboxamide] | 92 |
| O=C(NO)C1Cc2nccnc2CN1S(=O)(=O)c1ccc(OCCCBr)cc1 (single isomer, unassigned; (+)) [the compound(24), (+)-N-Hydroxy-6-[4-(3-bromopropoxy)benzenesulfonyl]-5,6,7,8-tetrahydropyrido[3,4-b]pyrazine-7-carboxamide] | 600 |
| CCCCOCCCOc1ccc(S(=O)(=O)N2Cc3nccnc3CC2C(=O)NO)cc1 (single isomer, unassigned; (+)) [the compound(25), (+)-N-Hydroxy-6-[4-(3-buthoxypropoxy)benzenesulfonyl]-5,6,7,8-tetrahydropyrido[3,4-b]pyrazine-7-carboxamide] | 260 |
| CC(C)COCCCOc1ccc(S(=O)(=O)N2Cc3nccnc3CC2C(=O)NO)cc1 (single isomer, unassigned; (+)) [the compound(26), (+)-N-Hydroxy-6-[4-(3-isobuthoxypropoxy)benzenesulfonyl]-5,6,7,8-tetrahydropyrido[3,4-b]pyrazine-7-carboxamide] | 560 |
| CC(C)(C)C(=O)Oc1ccc(S(=O)(=O)N2Cc3nccnc3CC2C(=O)NO)cc1 (single isomer, unassigned; (+)) [the compound(28), (+)-N-Hydroxy-6-(4-pivaloyloxybenzenesulfonyl)-5,6,7,8-tetrahydropyrido[3,4-b]pyrazine-7-carboxamide] | 2800 |
| N#CCCOc1ccc(S(=O)(=O)N2Cc3nccnc3CC2C(=O)NO)cc1 (single isomer, unassigned; (+)) [the compound(29), (+)-N-Hydroxy-6-[4-(2-cyanoethoxy)benzenesulfonyl]-5,6,7,8-tetrahydropyrido[3,4-b]pyrazine-7-carboxamide] | 200 |
| CCOC(=O)COc1ccc(S(=O)(=O)N2Cc3nccnc3CC2C(=O)NO)cc1 (single isomer, unassigned; (+)) [the compound(30), (+)-N-Hydroxy-6-(4-ethoxycarbonylmethoxy-benzenesulfonyl)-5,6,7,8-tetrahydropyrido[3,4-b]pyrazine-7-carboxamide] | 1000 |
| Cc1ccc(S(=O)(=O)N2Cc3nccnc3CC2C(=O)NO)cc1 (single isomer, unassigned; (+)) [the compound(31), (+)-N-Hydroxy-6-(4-methylbenzenesulfonyl)-5,6,7,8-tetrahydropyrido[3,4-b]pyrazine-7-carboxamide] | 2700 |
| CCOC(=O)CCCOc1ccc(S(=O)(=O)N2Cc3nccnc3CC2C(=O)NO)cc1 (single isomer, unassigned; (+)) [the compound(32), (+)-N-Hydroxy-6-[4-(3-ethoxycarbonylpropoxy)benzenesulfonyl]-5,6,7,8-tetrahydropyrido[3,4-b]pyrazine-7-carboxamide] | 1100 |
